Source: publication PMC10587159, “Biosynthesis and engineering of the nonribosomal peptides with a C-terminal putrescine” (Nature Communications, 2023)
“Also recorded” adds a separate entry of the source. Non-standard residues stand in square brackets, D forms with d. Residues, ends and D or L forms follow the SMILES beside them. *: point of attachment. Lauroyl = CCCCCCCCCCCC(=O)*; NH(CH2)4NH2 = NCCCCN*

How the values were obtained:
human cells Kasumi = assay: MTT cytotoxicity assay, Kasumi; assay type: cell-based; conditions: 24 h
Outline: (§1)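 An MTT-based assay, run as in prior work, gives compound cytotoxicity here. The tested lines undergo routine authentication through morphology and gene/protein expression checks.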

[1] = test system: S. brevitalea DSM 7029 wild type; assay: Growth curve of DSM 7029 wild type with compounds (Bioscreen C); assay type: cell-based, Schlegelella brevitalea DSM 7029; conditions: CYMG medium
Description: The growth curve was tested by Bioscreen C (Labsystems, Finland) as follow. Overnight culture was inoculated into 400 μL fresh CYMG medium in the ratio of 1:100 (the concentration of compounds was 0.1 μg/μL) and shook in normal speed. The OD600 value was gained in every hour for 42 h in total. Biofilm formation was measured at 18 h and 36 h respectively, as reported previously. In brief, the free-floating cells were removed, and the microtitre plate was washed with PBS (pH 7.4) after incubation for 18 h and 36 h. The biofilm was stained by adding 200 µL of crystal violet (0.1%) solution. Crystal violet solution was removed after 15 min and 200 µL of ethanol (95%) was added. The absorbance at OD600 was read using a microplate reader (Infinite M200, Tecan, Männedorf, Switzerland). Meanwhile, free-floating cells were used to test the secretion of pigment. The bacteria were removed and the supernatant was measured at OD600.

PvdQ-like acylase GdnD = assay: Deacylation by acylase GdnD (cell lysate, LC-MS); assay type: biochemical, Schlegelella brevitalea DSM 7029; conditions: 100 μL E. coli cell lysate with GdnD, 5 μL 10 mM substrate, 30 °C; 7 and 8: 4 h, 16 h, 27 h; other substrates 16 h; boiled lysate as control
Description: The hydrolysis function of PvdQ-like acylase GdnD was tested. GdnD is predicted to be a periplasmic protein by PSORTb[13]. The collected pellet from 50 mL LB dissolved with 8 mL buffer C (50 mM Tris, 300 mM NaCl, 5 mM MgCl2, pH 7.6), and lysed by cell disruption. Then, one hundred microliter of the cell lysate was incubated with 5 μL 10 mM substrates 7 and 8 for 4 h, 16 h, and 27 h at 30 °C. The negative control was boiled cell lysate. The other substrates (13, 14, 15, 16, and 17) incubated with the cell lysate dealt for 16 h at 30 °C. Then, the reaction was stopped by the addition of the 100 μL MeOH, and the final mixture was checked by LC‒MS analysis (5%‒95% ACN in 15 min) according to the above condition.

[2] = test system: human breast adenocarcinoma cells MCF7; assay: cells; assay type: cell-based; conditions: 24 h
Outline: (§2)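 Compound cytotoxicity is assessed with the MTT method in human cancer cells and normal 2B lung epithelial cells.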

[3] = test system: human acute lymphoblastic leukemia cells K562; assay: cells; assay type: cell-based; conditions: 24 h
Outline: as §2

[4] = test system: human lung epithelial normal cell 2B; assay: cells; assay type: cell-based; conditions: 24 h
Outline: as §2

[5] = test system: human gastric cancer cell SGC-7901; assay: cells; assay type: cell-based; conditions: 24 h
Outline: as §1

[6] = test system: human colon cancer cell HCT-116; assay: cells; assay type: cell-based; conditions: 24 h
Outline: (§3)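 MTT read-out of viability; cancer lines plus normal 2B epithelial cells. Lines authenticated by morphology, gene/protein expression.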

[7] = test system: human breast adenocarcinoma cells MDA-MB-231; assay: cells; assay type: cell-based; conditions: 24 h
Outline: as §3

[8] = test system: human hepatoma cell HepG-2; assay: cells; assay type: cell-based; conditions: 24 h
Outline: as §2

For `CCCCCCCCCCCC(=O)N[C@H](CCSC)C(=O)N[C@H](CC(N)=O)C(=O)N1CCC[C@H]1C(=O)N[C@H](C(=O)N[C@H](Cc1ccccc1)C(=O)N1CCC[C@H]1C(=O)N[C@@H](Cc1c[nH]c2ccccc12)C(=O)N[C@@H](C(=O)N[C@@H](C)C(=O)N[C@H](C)C(=O)N[C@@H](CO)C(=O)N[C@@H](C)C(=O)NCCCCN)C(C)C)C(C)C` [Compound 7, Glidonin G] (Lauroyl-[dM][dN]PV[dF]PW[dV]A[dA]SA-{NH(CH2)4NH2}), the IC50 (human cells Kasumi) was 7.93 ± 0.35 µM, the “effect on growth of DSM 7029 wild type in words” value ([1]; compound 0.1 μg/μL, OD600 every hour for 42 h, Bioscreen C) was “weak inhibition of growth; also recorded: obviously inhibit the growth” and the “OD600 of wild type DSM 7029 with addition of compounds” value ([1]; control OD600 0.6) was 0.4. The “deacylation by GdnD, nonacylated product by LC-MS” value (PvdQ-like acylase GdnD) was “nonacylated products 1 and 2 were detected”, the IC50 [2] was greater than 20 µM and the IC50 [3] was 13.5 ± 4.44 µM. It also gave an IC50 [4] of 11.7 ± 1.5 µM, an IC50 [5] greater than 20 µM and an IC50 [6] greater than 20 µM. For the same compound, the IC50 [7] was 4.76 ± 0.79 µM and the IC50 [8] was 8.3 ± 0.57 µM.
